Reference: the supplement of paper PMC10307832

Assays:
Assay in all cases: relative viability (nuclei count vs DMSO), 5 days (fraction); higher = more cells survive
[1] = compound: C1=CC2=C(C=CC(=C2)C=C3C(=O)NC(=NCC4=CC=CS4)S3)N=C1 [RO-3306] + CC1(C)CCC(c2ccc(Cl)cc2)=C(CN2CCN(c3ccc(C(=O)NS(=O)(=O)c4ccc(N[C@H](CCN5CCOCC5)CSc5ccccc5)c(S(=O)(=O)C(F)(F)F)c4)cc3)CC2)C1 [Navitoclax] (partner 0.5 µM)
In short: (§1)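 Relative viability was taken as the ratio of nuclei in treated wells to nuclei in vehicle wells. Lung cancer cell lines in 1536-well plates received compounds by pin tool one day after seeding, either one drug alone or a fixed anchor-drug dose plus five library-drug doses (not always all listed) in √10 steps. Nuclei were counted on 4× images after 5 days of treatment, and values are medians of duplicate plates.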

[2] = compound: C1=CC2=C(C=CC(=C2)C=C3C(=O)NC(=NCC4=CC=CS4)S3)N=C1 [RO-3306] + O=C(c1cc(Cc2n[nH]c(=O)c3ccccc23)ccc1F)N1CCN(C(=O)C2CC2)CC1 [Olaparib] (partner 8 µM)
In short: as §1

[3] = compound: O=S(=O)(c1ccccc1)N(CC(F)(F)F)c1ccc(C(O)(C(F)(F)F)C(F)(F)F)cc1 + COc1cccc2cc(-c3nc([C@H]4CC[C@H](C(=O)O)CC4)n4ncnc(N)c34)[nH]c12 [OSI-027] (partner 0.5 µM)
In short: as §1

[4] = compound: O=S(=O)(c1ccccc1)N(CC(F)(F)F)c1ccc(C(O)(C(F)(F)F)C(F)(F)F)cc1 + Nc1ncn([C@H]2C[C@H](O)[C@@H](CO)O2)c(=O)n1 [Decitabine] (partner 2 µM)
In short: as §1

| Cell Line | relative viability ([1]; first compound 0.01 µM) | relative viability ([1]; first compound 0.03162 µM) | relative viability ([1]; first compound 0.1 µM) | relative viability ([1]; first compound 0.3162 µM) | relative viability ([1]; first compound 1 µM) | relative viability ([2]; first compound 0.01 µM) | relative viability ([2]; first compound 0.03162 µM) | relative viability ([2]; first compound 0.1 µM) | relative viability ([2]; first compound 0.3162 µM) | relative viability ([2]; first compound 1 µM) | relative viability ([3]; first compound 0.8 µM) | relative viability ([3]; first compound 2.53 µM) | relative viability ([3]; first compound 8 µM) | relative viability ([4]; first compound 0.8 µM) | relative viability ([4]; first compound 2.53 µM) | relative viability ([4]; first compound 8 µM) |
| --- | --- | --- | --- | --- | --- | --- | --- | --- | --- | --- | --- | --- | --- | --- | --- | --- |
| NCI-H2009 | 1.2 | 1.14 | 1.17 | 1.09 | 1.13 | 0.789 | 0.684 | 0.694 | 0.796 | 0.727 | 0.588 | 0.567 | 0.568 | 0.366 | 0.372 | 0.369 |
| NCI-H1915 | 0.808 | 0.797 | 0.792 | 0.781 | 0.718 | 0.276 | 0.235 | 0.263 | 0.246 | 0.255 | 0.643 | 0.646 | 0.649 | 0.287 | 0.281 | 0.29 |
| EMC-BAC-2 | 1.44 | 0.984 | 1.25 | 1.24 | 1.14 | 0.472 | 0.459 | 0.468 | 0.481 | 0.448 | 0.455 | 0.422 | 0.37 | 0.973 | 0.908 | 0.974 |
| Calu-6 | 1.06 | 0.776 | 0.934 | 0.908 | 0.826 | 0.568 | 0.576 | 0.599 | 0.611 | 0.604 | – | – | – | – | – | – |
| NCI-H2126 | 0.868 | 0.816 | 0.822 | 0.858 | 0.756 | 0.945 | 0.901 | 0.902 | 0.9 | 0.932 | 0.819 | 0.673 | 0.717 | 0.655 | 0.573 | 0.533 |
| NCI-H596 | 0.894 | 0.967 | 0.962 | 0.994 | 0.72 | 0.675 | 0.669 | 0.616 | 0.672 | 0.569 | 0.71 | 0.6 | 0.716 | 1.04 | 0.899 | 1.05 |
| SW 900 | – | – | – | – | – | 0.96 | 0.809 | 0.72 | 0.789 | 0.807 | 0.52 | 0.519 | 0.591 | 0.417 | 0.427 | 0.429 |
| NCI-H1650 | 1.15 | 1.11 | 1.19 | 1.19 | 0.974 | 0.933 | 0.718 | 0.809 | 0.784 | 0.656 | 0.58 | 0.542 | 0.603 | 0.463 | 0.454 | 0.465 |
| EKVX | 1.02 | 0.94 | 1.06 | 0.971 | 0.921 | 1.03 | 0.821 | 0.846 | 0.895 | 0.704 | 0.746 | 0.646 | 0.691 | 0.405 | 0.286 | 0.209 |
| NCI-H2342 | – | – | – | – | – | 0.574 | 0.499 | 0.428 | 0.437 | 0.379 | 0.646 | 0.626 | 0.58 | 0.82 | 0.837 | 0.738 |
| NCI-H1975 | 1.49 | 0.986 | 1.22 | 1.12 | 1.01 | 1.07 | 0.711 | 0.835 | 0.918 | 0.953 | 0.885 | 0.641 | 0.71 | 0.453 | 0.545 | 0.472 |
| HCC-78 | 0.814 | 0.767 | 0.675 | 0.92 | 0.682 | 0.849 | 0.714 | 0.93 | 0.938 | 0.762 | 0.342 | 0.399 | 0.469 | 0.748 | 0.714 | 0.599 |
| LXF-289 | 0.992 | 0.961 | 0.972 | 0.976 | 0.993 | 1.06 | 0.897 | 1.06 | 1.08 | 0.692 | 0.877 | 0.64 | 0.749 | 0.411 | 0.419 | 0.429 |
| ABC-1 | – | – | – | – | – | 0.785 | 1.17 | 0.833 | 0.61 | 0.771 | 0.539 | 0.426 | 0.549 | – | 1.02 | 1.05 |
| NCI-H1648 | – | – | – | – | – | 0.679 | – | 0.927 | 0.767 | 0.885 | 0.248 | 0.254 | 0.185 | 0.462 | 0.546 | 0.595 |
| NCI-H522 | – | – | – | – | – | 0.619 | 0.561 | 0.634 | 0.546 | 0.608 | 0.615 | 0.754 | 0.903 | 0.565 | 0.608 | 0.746 |
| NCI-H2228 | 1.19 | 0.805 | 0.673 | 1.07 | 0.62 | 0.603 | 0.601 | 0.645 | 0.654 | 0.524 | 0.542 | 0.348 | 0.521 | – | – | – |
| EBC-1 | 0.412 | 0.357 | 0.315 | 0.474 | 0.29 | 0.838 | 0.559 | 0.632 | 0.839 | 0.751 | – | – | – | – | – | – |
| NCI-H1623 | – | – | – | – | – | – | – | – | – | – | 0.469 | 0.389 | 0.484 | – | – | – |
| A549 | 1.36 | – | 1.2 | 1.18 | 1.21 | 0.308 | 0.295 | 0.297 | 0.367 | 0.303 | – | – | – | 0.411 | 0.292 | 0.201 |
| NCI-H1703 | 1.23 | 0.913 | 1.08 | 0.887 | 1.13 | 0.387 | 0.38 | 0.387 | 0.389 | 0.429 | – | – | – | – | – | – |
| NCI-H650 | – | – | – | – | – | 0.316 | 0.373 | 0.37 | 0.382 | 0.361 | 0.533 | 0.498 | 0.532 | 0.339 | 0.312 | 0.288 |
| IA-LM | 0.838 | 0.591 | 0.717 | 0.903 | 1.04 | 0.975 | – | 0.785 | 0.846 | 0.865 | – | – | – | – | – | – |
| NCI-H661 | – | – | – | – | – | 0.751 | 0.754 | 0.741 | 0.755 | 0.818 | 0.737 | 0.788 | 0.738 | 0.612 | 0.569 | 0.498 |
| NCI-H1563 | – | – | – | – | – | – | – | – | – | – | 0.792 | 0.734 | 0.854 | – | – | – |
